SMILES strings stand for the structures. Calls of active or inactive are those of the source. How the calls were made is not given here.

For this data set, the system named is CCRIS mutagenicity, Ames/micronucleus/aberration tests. Description: CCRIS mutagenicity studies.

Turning to `CCOC(=O)NO`, the mutagenic call is, setting by setting: (Test System: AMES SALMONELLA TYPHIMURIUM, Strain/Indicator: TA98, Metabolic Activation: RAT, LIVER, S-9, KC500 OR PHENOBARBITAL, Method: LIQUID SUSPENSION) “active; positive”; (Test System: E. COLI, Strain/Indicator: WP2 UVRA, Metabolic Activation: NONE, Method: FLUCTUATION TEST) “active; positive”.
In the case of `O=S(=O)(O)Oc1ccc2ccc3c4ccccc4cc4ccc1c2c43`, the mutagenic call (Test System: AMES SALMONELLA TYPHIMURIUM, Strain/Indicator: TA98, Metabolic Activation: NONE, Method: PREINCUBATION) is “inactive; negative” and the mutagenic call (Test System: AMES SALMONELLA TYPHIMURIUM, Strain/Indicator: TA98, Metabolic Activation: RAT, LUNG, S-9, Method: PREINCUBATION) was “inactive; negative”.
As to `O=C1OC(O)C(C(Br)Br)=C1Br` (stereo not drawn), the mutagenic call (Test System: AMES SALMONELLA TYPHIMURIUM, Strain/Indicator: TA98, Metabolic Activation: NONE, Method: STANDARD PLATE) is “active; positive”; the mutagenic call (Test System: AMES SALMONELLA TYPHIMURIUM, Strain/Indicator: TA98, Metabolic Activation: RAT LIVER S-9, AROCLOR 1254, Method: STANDARD PLATE) is “inactive; negative”; the mutagenic call (Test System: AMES SALMONELLA TYPHIMURIUM, Strain/Indicator: TA100, Metabolic Activation: NONE, Method: STANDARD PLATE) was “active; positive”; the mutagenic call (Test System: AMES SALMONELLA TYPHIMURIUM, Strain/Indicator: TA100, Metabolic Activation: RAT LIVER S-9, AROCLOR 1254, Method: STANDARD PLATE) is “inactive; negative”.

For the origin of these results see PubChem BioAssay AID1259407 (Chemical Carcinogenesis Research Information System (CCRIS), 2018).
